# Assay results published in PubChem BioAssay AID2060341 (Molecular Pharmacology Branch, DTP, NCI, 2025).
# Where “and” joins values, the source holds several entries; their conditions need not be identical. Equal values may be shown once.
# Tested on: 327498-153-R-J2-PDC multicell spheroid viability
# Assay: Anticancer human tumor 327498-153-R-J2-PDC patient-derived uterine carcinosarcoma cell line growth inhibition [IpAb]
# Settings: for viability, T/C: stronger effect = lower value
# Excerpt: Combinatorial screen of targeted agents with ipatasertib and abemaciclib in multi-cell type tumor spheroids
# A high-throughput screen of multi-cell type tumor spheroids was designed to identify active combinations of targeted small molecules and ipatasertib or abemaciclib. Complex spheroids include a stromal component modeled by human endothelial cells (HUVEC) and fibroblasts modeled by human mesenchymal stem cells (MSCs). The concentration ranges selected for each drug and investigational agent were based upon clinically achievable concentrations if the clinical Cmax of the agent was known.
# Compounds. The drugs and investigational agents: ipatasertib (NSC767898), abemaciclib(NSC768073), selumetinib (NSC741078), trametinib (758246), adavosertib (NSC754352), everolimus (NSC733504), sapanisertib (NSC764658), vemurafenib (NSC761431), venetoclax (NSC766270), copanlisib (NSC809693), apelisib (NSC765974), palbociblib (NSC758247), vemurafenib (NSC761431), dabrafenib (NSC764134), ravoxertinib (NSC781343), BMS-387032 (NSC767048), sotorasib (NSC818433), talazoparib (NSC767125) and afursertib (NSC778305), were obtained from the National Cancer Institute (NCI) Developmental Therapeutics Program Chemical Repository. The FDA-approved anticancer drug set is available from the NCI Developmental Therapeutics Program. […] The stock solutions were prepared in dimethyl sulfoxide (DMSO, Sigma-Aldrich, St. Louis, MO, cat. D2650) at 800-fold the tested concentration and stored at -70 degrees C prior to their use. All drugs and investigational agents were tested over a range starting from a high concentration at or near the clinical Cmax and decreasing in half-log increments. If the clinical Cmax for an agent had not been determined, the highest concentration tested was 10 microM.
# NCI60 Cell Culture. NCI60 cell lines were obtained from the NCI Developmental Therapeutics Program Tumor Repository. For each lot of cells, the Repository performed Applied Biosystems AmpFLSTR Identifiler testing with PCR amplification to confirm consistency with the published Identifier STR profile for each cell line. Cells were kept in continuous culture for no more than 20 passages. The optimal seeding densities for each of the cell lines at each time point assessed were determined prior to performing the concentration response studies. Briefly, the NCI60 human tumor lines were grown as monolayers in RPMI 1640 medium supplemented with 10% FBS and 2 mmol/L L-glutamine.
# An additional 9 lines were from the NCI60 cell line panel including MDA-MB-231 breast carcinoma, MDA-MB-468 breast carcinoma, MCF7 breast carcinoma, Hs578T breast carcinoma, MALME-3M melanoma, SK-MEL-2 melanoma, SK-OV-3 ovarian carcinoma, DU-145 prostate carcinoma, PC-3 prostate carcinoma, all cell lines along with major genetic alterations are listed on Table 2. Pooled donor human umbilical vein endothelial cells (HUVEC, Lonza, cat. CC-2519) and human mesenchymal stem cells (hMSC, Lonza, cat. PT-2501) were purchased from Lonza (Walkersville, MD).
# PDMR cell lines were grown in complete medium (DC medium): Dulbecco's modified Eagle's medium (DMEM)/F12 supplemented with 5% fetal bovine serum (FBS), 2 mM L-glutamine, 100 U/mL penicillin and 100 µg/ml streptomycin, 0.4 µg/ml hydrocortisone, 10 ng/ml epidermal growth factor (EGF) recombinant human protein, 24 µg/mL adenine, and 0.1 mg/mL primocin. During culture from frozen stock vials, PDMR cells were cultured in the same medium containing 10 µM Y-27632 (see Table 3). The PDCs were cultured in complete DMEM/F12 media without 10 microM Y-27632 dihydrochloride for at least two passages prior to the screen. The pooled donor HUVEC and hMSC were cultured in endothelial cell growth medium 2 (PromoCell, Heidelberg, Germany, cat. C-22011) and mesenchymal stem cell growth medium 2 (PromoCell, cat. C-28009), respectively. For all experiments, HUVEC and hMSC were used at passages </=5.
# […]
# 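Further: spheroids exposed to agents for 7 days.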
# 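Wherever viability, T/C is given: 100% = DMSO vehicle control viability.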
structure (smiles),measurement,setting,value
C=CC(=O)N1CCN(c2nc(=O)n(-c3c(C)ccnc3C(C)C)c3nc(-c4c(O)cccc4F)c(F)cc23)C(C)C1 (stereo not drawn),"viability, T/C",compound 0.0316 µM,73.5% and 77.4%
same,"viability, T/C",compound 0.1 µM,69.2% and 69.6%
same,"viability, T/C",compound 0.316 µM,58.3% and 67.6%
same,"viability, T/C",compound 1 µM,65.6% and 63.7%
same,"viability, T/C",compound 3.16 µM,67.2% and 65%
same,"viability, T/C",compound 10 µM,55.8% and 59.9%
same,IC50,curve of compound,> 10000 nM
Cn1cnc2c(F)c(Nc3ccc(Br)cc3Cl)c(C(=O)NOCCO)cc21 + CC(C)NCC(C(=O)N1CCN(c2ncnc3c2C(C)CC3O)CC1)c1ccc(Cl)cc1,IC50,"curve of first compound, second compound 0.1 µM",427 nM
same,IC50,"curve of first compound, second compound 0.316 µM",61.2 nM
same,IC50,"curve of first compound, second compound 1 µM",< 9.49 nM
same,IC50,"curve of first compound, second compound 3.16 µM",< 9.49 nM
same,IC50,"curve of first compound, second compound 10 µM",< 9.49 nM
same,"viability, T/C","second compound 0.1 µM, first compound 0.00949 µM",91.7%
same,"viability, T/C","second compound 0.1 µM, first compound 0.03 µM",69.9%
same,"viability, T/C","second compound 0.1 µM, first compound 0.0949 µM",66.2%
same,"viability, T/C","second compound 0.1 µM, first compound 0.3 µM",51.7%
same,"viability, T/C","second compound 0.1 µM, first compound 0.949 µM",46.1%
same,"viability, T/C","second compound 0.1 µM, first compound 3 µM",34.1%
same,"viability, T/C","second compound 0.316 µM, first compound 0.00949 µM",60.2%
same,"viability, T/C","second compound 0.316 µM, first compound 0.03 µM",51.6%
same,"viability, T/C","second compound 0.316 µM, first compound 0.0949 µM",48%
same,"viability, T/C","second compound 0.316 µM, first compound 0.3 µM",41.9%
same,"viability, T/C","second compound 0.316 µM, first compound 0.949 µM",29.7%
same,"viability, T/C","second compound 0.316 µM, first compound 3 µM",20.6%
same,"viability, T/C","second compound 1 µM, first compound 0.00949 µM",41.9%
same,"viability, T/C","second compound 1 µM, first compound 0.03 µM",34.6%
same,"viability, T/C","second compound 1 µM, first compound 0.0949 µM",32.9%
same,"viability, T/C","second compound 1 µM, first compound 0.3 µM",28.9%
same,"viability, T/C","second compound 1 µM, first compound 0.949 µM",20.4%
same,"viability, T/C","second compound 1 µM, first compound 3 µM",11.5%
same,"viability, T/C","second compound 3.16 µM, first compound 0.00949 µM",33.8%
same,"viability, T/C","second compound 3.16 µM, first compound 0.03 µM",27.2%
same,"viability, T/C","second compound 3.16 µM, first compound 0.0949 µM",21%
same,"viability, T/C","second compound 3.16 µM, first compound 0.3 µM",21%
same,"viability, T/C","second compound 3.16 µM, first compound 0.949 µM",13.3%
same,"viability, T/C","second compound 3.16 µM, first compound 3 µM",7.22%
same,"viability, T/C","second compound 10 µM, first compound 0.00949 µM",27.1%
same,"viability, T/C","second compound 10 µM, first compound 0.03 µM",22.4%
same,"viability, T/C","second compound 10 µM, first compound 0.0949 µM",16.3%
same,"viability, T/C","second compound 10 µM, first compound 0.3 µM",15.7%
same,"viability, T/C","second compound 10 µM, first compound 0.949 µM",12.2%
same,"viability, T/C","second compound 10 µM, first compound 3 µM",6.89%
CC(C)NCC(C(=O)N1CCN(c2ncnc3c2C(C)CC3O)CC1)c1ccc(Cl)cc1 (stereo not drawn),"viability, T/C",compound 0.1 µM,98.4% [middle of 13 runs]
same,"viability, T/C",compound 0.316 µM,80.2% [middle of 13 runs]
same,"viability, T/C",compound 1 µM,59.7% [middle of 13 runs]
same,"viability, T/C",compound 3.16 µM,48.1% [middle of 13 runs]
same,"viability, T/C",compound 10 µM,34.2% [middle of 13 runs]
same,IC50,"compound alone, run of 05/18/2021",2.46 µM [middle of 13 runs]
